From ChEMBL document CHEMBL1201862, “PubChem BioAssay data set” (2004)
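Five compound concentrations were applied to cells in 96-well plates for 48 hours; endpoints were derived by simple linear interpolation of the resulting dose-response curve. Abbreviation: GI50, concentration required for 50% inhibition of growth.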 The source made the active and inactive calls. No stated cut-off is given here; in the data, active = GI50 up to about 1.1 µM and inactive = higher.

How the values were obtained:
Assay in all cases: inhibition of tumour cell growth, NCI panel, 48 h
786-0 = system: 786-0
A549 = system: A549
ACHN = system: ACHN
CAKI-1 = system: CAKI-1
CCRF-CEM = system: CCRF-CEM
COLO 205 = system: COLO 205
DLD-1 = system: DLD-1
DMS-114 = system: DMS-114
DMS-273 = system: DMS-273
EKVX = system: EKVX
HCC 2998 = system: HCC 2998
HCT-116 = system: HCT-116
HCT-15 = system: HCT-15
HL-60 = system: HL-60
HOP-18 = system: HOP-18
HOP-62 = system: HOP-62
HOP-92 = system: HOP-92
HT-29 = system: HT-29
IGROV-1 = system: IGROV-1
K562 = system: K562
KM-20L2 = system: KM-20L2
KM12 = system: KM12
LOX IMVI = system: LOX IMVI
LXFL 529 = system: LXFL 529
M14 = system: M14
M19-MEL = system: M19-MEL
MOLT-4 = system: MOLT-4
Malme-3M = system: Malme-3M
NCI-H226 = system: NCI-H226
NCI-H23 = system: NCI-H23
NCI-H460 = system: NCI-H460
NCI-H522 = system: NCI-H522
OVCAR-3 = system: OVCAR-3
OVCAR-4 = system: OVCAR-4
OVCAR-5 = system: OVCAR-5
OVCAR-8 = system: OVCAR-8
RPMI-8226 = system: RPMI-8226
RXF 393 = system: RXF 393
RXF 631 = system: RXF 631
SF-295 = system: SF-295
SF-539 = system: SF-539
SK-MEL-28 = system: SK-MEL-28
SK-MEL-2 = system: SK-MEL-2
SK-MEL-5 = system: SK-MEL-5
SK-OV-3 = system: SK-OV-3
SN12C = system: SN12C
SNB-19 = system: SNB-19
SNB-75 = system: SNB-75
SNB-78 = system: SNB-78
SR = system: SR
SW-620 = system: SW-620
TK-10 = system: TK-10
U-251 = system: U-251
UACC-257 = system: UACC-257
UACC-62 = system: UACC-62
UO-31 = system: UO-31
XF498 = system: XF498

Measured: GI50

COc1ccc2c(c1OC)C(=O)c1cnccc1C2=O
inactive: 786-0 > 100 µM | A549 > 100 µM | ACHN > 100 µM | CAKI-1 > 100 µM | CCRF-CEM > 100 µM | COLO 205 > 100 µM | DLD-1 > 100 µM | DMS-114 > 100 µM | DMS-273 > 100 µM | EKVX > 100 µM | HCC 2998 > 100 µM | HCT-116 > 100 µM | HL-60 > 100 µM | HOP-18 > 100 µM | HOP-62 > 100 µM | HOP-92 > 100 µM | HT-29 > 100 µM | IGROV-1 > 100 µM | K562 > 100 µM | KM-20L2 > 100 µM | KM12 > 100 µM | LOX IMVI > 100 µM | LXFL 529 > 100 µM | M14 > 100 µM | M19-MEL > 100 µM | MOLT-4 > 100 µM | Malme-3M > 100 µM | NCI-H226 > 100 µM | NCI-H23 > 100 µM | NCI-H460 > 100 µM | NCI-H522 > 100 µM | OVCAR-3 > 100 µM | OVCAR-4 > 100 µM | OVCAR-5 > 100 µM | OVCAR-8 > 100 µM | RPMI-8226 > 100 µM | RXF 393 24.9 µM | RXF 631 > 100 µM | SF-295 > 100 µM | SF-539 > 100 µM | SK-MEL-28 > 100 µM | SK-MEL-2 > 100 µM | SK-MEL-5 > 100 µM | SK-OV-3 > 100 µM | SN12C > 100 µM | SNB-19 > 100 µM | SNB-75 > 100 µM | SNB-78 > 100 µM | SR > 100 µM | SW-620 > 100 µM | TK-10 > 100 µM | U-251 > 100 µM | UACC-257 > 100 µM | UACC-62 > 100 µM | UO-31 > 100 µM | XF498 > 100 µM
> 100 µM: HCT-15
